This passage reports Ki and EC50 results from patent US10035800B2 (AbbVie Inc., priority 2013, dated 2018).

In one test the target is T1, BRD4 (BDI_K57-E168) (Homo sapiens, UniProt O60885).
T1 construct: BD1: amino acids K57-E168; made in house
As to the kind of experiment: TR-FRET bromodomain binding assay, first bromodomain of BRD4. The settings on record: 100 nM probe. Summed up: (§1)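 Compound dilutions are mixed with His-tagged BRD4 bromodomain (8 nM), europium anti-His antibody (1 nM) and Alexa647 probe (BDI 100 nM; BDII 30 nM) in pH 6.0 buffer containing 2% DMSO. After equilibrating one hour at room temperature, TR-FRET is measured; percent inhibition is fitted to obtain IC50, from which Ki is calculated.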

A further test concerns the target T2, BRD4 (BDII_E352-M457) (Homo sapiens, UniProt O60885).
T2 construct: protocol; made in house
As to the kind of experiment: TR-FRET bromodomain binding assay, second bromodomain of BRD4. Conditions: 30 nM probe. Summed up: as §1

In test [1] the test system is breast cancer cell line MX-1. As to the kind of experiment: MX-1 cell line proliferation assay. The format is cell-based. Conditions: MX-1 cells, 3-day proliferation assay, Cell Titer Glo; read-out: Cellular proliferation: EC50. The procedure: MX-1 Cell Line Proliferation Assay
The impact of compounds of the Examples on cancer cell proliferation was determined using the breast cancer cell line MX-1 (ATCC) in a 3-day proliferation assay and the data are reported in Table 1. MX-1 cells were maintained in RPMI 1640 medium (Sigma) supplemented with 10% FBS at 37 C.° and an atmosphere of 5% CO2. For compound testing, MX-1 cells were plated in 96-well black bottom plates at a density of 5000 cells/well in 90 μL of culture media and incubated at 37° overnight to allow cell adhesion and spreading. Compound dilution series were prepared in DMSO via a 3-fold serial dilution from 3 mM to 0.1 μM. The DMSO dilution series were then diluted 1:100 in phosphate buffered saline, and 10 μL of the resulted solution were added to the appropriate wells of the MX-1 cell plate. The final compound concentrations in the wells were 3, 1, 0.3, 0.1, 0.03, 0.01, 0.003, 0.001, 0.0003, and 0.0001 μM or 1, 0.3, 0.1, 0.03, 0.01, 0.003, 0.001, 0.0003, 0.0001, and 0.00003 μM.
Luminescence readings from the Cell Titer Glo assay were normalized to the DMSO treated cells and analyzed using the GraphPad Prism software with sigmoidal curve fitting to obtain EC50s. The minimum significant ratio (MSR) was determined to evaluate assay reproducibility (Eastwood et al., (2006) J Biomol Screen, 11: 253-261). The overall MSR was determined to be 2.1 and a moving MSR (last six run MSR overtime) has been <2.

Where [2] appears, read: TR-FRET assay protocol E (compound 9.19 μM-150 pM).
[3] abbreviates: TR-FRET assay protocol G (compound 0.92 μM-15 pM).

Bounds are passed on as bounds.

For the compound `Cn1cc2c3c(c[nH]c3c1=O)CN(CC1CCN(C(=O)OC(C)(C)C)CC1)c1ccc(CS(C)(=O)=O)cc1-2` [Example 28], the Ki at BRD4 (BDI_K57-E168) (setting [2]) was determined as 1.1 nM; at BRD4 (BDII_E352-M457) (setting [2]), 1.17 nM. In addition, the EC50 in test [1] came out at 13.7 nM.
On to `Cn1cc2c3c(c[nH]c3c1=O)CN(c1ccc(F)cc1)c1ncc(F)cc1-2` [Example 32, 7-fluoro-4-(4-fluorophenyl)-10-methyl-3,4-dihydro-1H-1,4,5,10-tetraazadibenzo[cd,f]azulen-11(10H)-one], for which the figures for the Ki on BRD4 (BDI_K57-E168) (setting [3]) and on BRD4 (BDII_E352-M457) (setting [3]) were 1.01 nM and 1.14 nM, respectively. Besides, the EC50 in test [1] amounted to 1.38 nM.
On to `Cc1cnc2c(c1)-c1cn(C)c(=O)c3[nH]cc(c13)C(c1ccccc1)N2c1ccc(F)cc1` (stereo not drawn) [Example 33, 4-(4-fluorophenyl)-7,10-dimethyl-3-phenyl-3,4-dihydro-1H-1,4,5,10-tetraazadibenzo[cd,f]azulen-11(10H)-one], for which the inhibition constant Ki was determined as 38.3 nM on BRD4 (BDI_K57-E168) (setting [3]) and 22.8 nM at BRD4 (BDII_E352-M457) (setting [3]). In addition, in test [1], the EC50 worked out at 495 nM.
For the compound `Cn1cc2c3c(c[nH]c3c1=O)CN(CC1CCNC1)c1ccc(CS(C)(=O)=O)cc1-2` (stereo not drawn) [Example 36], the results for the Ki on BRD4 (BDI_K57-E168) (setting [3]) and at BRD4 (BDII_E352-M457) (setting [3]) were 5.05 nM and 6.25 nM, respectively. Also, the EC50 in test [1] was > 1000 nM.
For the compound `COC1CCN(C(=O)C2c3c[nH]c4c(=O)n(C)cc(c34)-c3cc(CS(C)(=O)=O)ccc3N2c2ccc(F)cc2)CC1` (stereo not drawn) [Example 40], the inhibition constant Ki came out at 29.4 nM at BRD4 (BDI_K57-E168) (setting [3]) and 136 nM on BRD4 (BDII_E352-M457) (setting [3]). The EC50 in test [1] worked out at 398 nM.
For `CN1CCN(C(=O)C2c3c[nH]c4c(=O)n(C)cc(c34)-c3cc(CS(C)(=O)=O)ccc3N2c2ccc(F)cc2)CC1` (stereo not drawn) [Example 41, 4-(4-fluorophenyl)-10-methyl-3-(4-methylpiperazine-1-carbonyl)-7-((methylsulfonyl)methyl)-3,4-dihydro-1H-1,4,10-triazadibenzo[cd,f]azulen-11(10H)-one] the same measures were 49.5 nM, 57.8 nM and > 1000 nM.
For `Cn1cc2c3c(c[nH]c3c1=O)CN(C(=O)NC1CCCC1)c1ccc(CS(C)(=O)=O)cc1-2` [Example 44, N-cyclopentyl-10-methyl-7-((methylsulfonyl)methyl)-11-oxo-10,11-dihydro-1H-1,4,10-triazadibenzo[cd,f]azulene-4(3H)-carboxamide] the same measures were 2.61 nM, 2.47 nM and 48.7 nM.
On the same counts, the results for `CCNC(=O)N1Cc2c[nH]c3c(=O)n(C)cc(c23)-c2cc(CS(C)(=O)=O)ccc21` [Example 45, N-ethyl-10-methyl-7-((methylsulfonyl)methyl)-11-oxo-10,11-dihydro-1H-1,4,10-triazadibenzo[cd,f]azulene-4(3H)-carboxamide] are 3.92 nM, 3.75 nM and 141 nM.
Consider `Cn1cc2c3c(c[nH]c3c1=O)CN(C(=O)Nc1ccc(F)cc1)c1ccc(CS(C)(=O)=O)cc1-2` [Example 46], for which the Ki at BRD4 (BDI_K57-E168) (setting [3]) came out at 13.7 nM; at BRD4 (BDII_E352-M457) (setting [3]), 7.48 nM. Moreover, in test [1], the EC50 turned out to be 152 nM.
For `CCCCN1Cc2c[nH]c3c(=O)n(C)cc(c23)-c2cc(F)cc(F)c21` [Example 47, 4-butyl-5,7-difluoro-10-methyl-3,4-dihydro-1H-1,4,10-triazadibenzo[cd,f]azulen-11(10H)-one] the same measures were 1.37 nM, 1.27 nM and 8.33 nM.
On the same counts, the results for `CCCN1Cc2c[nH]c3c(=O)n(C)cc(c23)-c2cc(F)cc(F)c21` [Example 48, 5,7-difluoro-10-methyl-4-propyl-3,4-dihydro-1H-1,4,10-triazadibenzo[cd,f]azulen-11(10H)-one] are 1.12 nM, 0.855 nM and 4.41 nM.
With `Cn1cc2c3c(c[nH]c3c1=O)CN(CC1CC1)c1c(F)cc(F)cc1-2` [Example 49, 4-(cyclopropylmethyl)-5,7-difluoro-10-methyl-3,4-dihydro-1H-1,4,10-triazadibenzo[cd,f]azulen-11(10H)-one], the Ki on BRD4 (BDI_K57-E168) (setting [3]) was 1.99 nM; on BRD4 (BDII_E352-M457) (setting [3]) it was 2.21 nM. In addition, the EC50 in test [1] was 8.63 nM.
Consider `COC(=O)CCCN1Cc2c[nH]c3c(=O)n(C)cc(c23)-c2cc(F)cc(F)c21` [Example 50, methyl 4-(5,7-difluoro-10-methyl-11-oxo-10,11-dihydro-1H-1,4,10-triazadibenzo[cd,f]azulen-4(3H)-yl)butanoate], for which the values for the Ki at BRD4 (BDI_K57-E168) (setting [3]) and on BRD4 (BDII_E352-M457) (setting [3]) were 3.44 nM and 5.51 nM, respectively. Also, the EC50 in test [1] was found to be 42.2 nM.
With `Cn1cc2c3c(c[nH]c3c1=O)CN(CCCc1ccccc1)c1c(F)cc(F)cc1-2` [Example 51, 5,7-difluoro-10-methyl-4-(3-phenylpropyl)-3,4-dihydro-1H-1,4,10-triazadibenzo[cd,f]azulen-11(10H)-one], the Ki was determined as 4.43 nM at BRD4 (BDI_K57-E168) (setting [3]) and 13.2 nM at BRD4 (BDII_E352-M457) (setting [3]). Besides, in test [1], the EC50 is 174 nM.
For the compound `Cc1ccccc1NC(=O)N1Cc2c[nH]c3c(=O)n(C)cc(c23)-c2cc(CS(C)(=O)=O)ccc21` [Example 52, 10-methyl-7-((methylsulfonyl)methyl)-11-oxo-N-(o-tolyl)-10,11-dihydro-1H-1,4,10-triazadibenzo[cd,f]azulene-4(3H)-carboxamide], the Ki on BRD4 (BDI_K57-E168) (setting [3]) amounted to 17.4 nM; on BRD4 (BDII_E352-M457) (setting [3]), 4.99 nM. Also, the EC50 in test [1] was found to be 247 nM.
`Cn1cc2c3c(c[nH]c3c1=O)CN(CCc1ccccc1)c1c(F)cc(F)cc1-2` [Example 55, 5,7-difluoro-10-methyl-4-phenethyl-3,4-dihydro-1H-1,4,10-triazadibenzo[cd,f]azulen-11(10H)-one]: the Ki at BRD4 (BDI_K57-E168) (setting [3]) was 8.96 nM; on BRD4 (BDII_E352-M457) (setting [3]) it was 15.9 nM. Further, in test [1], the EC50 turned out to be 146 nM.
For `Cn1cc2c3c(c[nH]c3c1=O)CN(CCc1ccc3c(c1)OCO3)c1c(F)cc(F)cc1-2` [Example 56, 4-(2-(benzo[d][1,3]dioxol-5-yl)ethyl)-5,7-difluoro-10-methyl-3,4-dihydro-1H-1,4,10-triazadibenzo[cd,f]azulen-11(10H)-one] the same measures were 14.4 nM, 35.3 nM and 197 nM.
Regarding `Cc1cccc(C)c1NC(=O)N1Cc2c[nH]c3c(=O)n(C)cc(c23)-c2cc(CS(C)(=O)=O)ccc21` [Example 61, N-(2,6-dimethylphenyl)-10-methyl-7-((methylsulfonyl)methyl)-11-oxo-10,11-dihydro-1H-1,4,10-triazadibenzo[cd,f]azulene-4(3H)-carboxamide], the Ki was found to be 21.1 nM on BRD4 (BDI_K57-E168) (setting [3]) and 3.74 nM on BRD4 (BDII_E352-M457) (setting [3]). Besides, the EC50 in test [1] is > 1000 nM.
On to `COc1ccc(NC(=O)N2Cc3c[nH]c4c(=O)n(C)cc(c34)-c3cc(CS(C)(=O)=O)ccc32)cc1` [Example 62, N-(4-methoxyphenyl)-10-methyl-7-((methylsulfonyl)methyl)-11-oxo-10,11-dihydro-1H-1,4,10-triazadibenzo[cd,f]azulene-4(3H)-carboxamide], for which the Ki at BRD4 (BDI_K57-E168) (setting [3]) was determined as 7.23 nM; at BRD4 (BDII_E352-M457) (setting [3]), 4.73 nM. The EC50 in test [1] was determined as 910 nM.
On the same counts, the results for `CCCNC(=O)N1Cc2c[nH]c3c(=O)n(C)cc(c23)-c2cc(CS(C)(=O)=O)ccc21` [Example 64, 10-methyl-7-((methylsulfonyl)methyl)-11-oxo-N-propyl-10,11-dihydro-1H-1,4,10-triazadibenzo[cd,f]azulene-4(3H)-carboxamide] are 2.69 nM, 2.85 nM and 84.6 nM.
`Cn1cc2c3c(c[nH]c3c1=O)CN(C(=O)Nc1ccc(F)cc1F)c1ccc(CS(C)(=O)=O)cc1-2` [Example 68, N-(2,4-difluorophenyl)-10-methyl-7-((methylsulfonyl)methyl)-11-oxo-10,11-dihydro-1H-1,4,10-triazadibenzo[cd,f]azulene-4(3H)-carboxamide]: the Ki on BRD4 (BDI_K57-E168) (setting [3]) turned out to be 12.7 nM; at BRD4 (BDII_E352-M457) (setting [3]) it was 4.22 nM. In addition, the EC50 in test [1] is 40.1 nM.
Consider `CC(C)c1ccc(NC(=O)N2Cc3c[nH]c4c(=O)n(C)cc(c34)-c3cc(CS(C)(=O)=O)ccc32)cc1` [Example 69, N-(4-isopropylphenyl)-10-methyl-7-((methylsulfonyl)methyl)-11-oxo-10,11-dihydro-1H-1,4,10-triazadibenzo[cd,f]azulene-4(3H)-carboxamide], for which the Ki was 3.25 nM at BRD4 (BDI_K57-E168) (setting [3]) and 3.24 nM at BRD4 (BDII_E352-M457) (setting [3]). Besides, in test [1], the EC50 turned out to be 43.1 nM.
